Measured values: US12403127B2, “Specifically meso-substituted porphyrins and chlorins for photodynamic therapy” (biolitec Unternehmensbeteiligungs II AG, priority 2014, dated 2025)

Key:
[1] = system: HT29 (human colon adenocarcinoma cell line); test: Cell test of photosensitizing activity (XTT cell viability after 652 nm laser irradiation) in HT29; format: cell-based; conditions: 2 or 10 μM photosensitizer, 24 h incubation, 50 J/cm^2, XTT viability 24 h after irradiation
Description: (§1) The photosensitizing activity was determined in the following cell lines: • HT29 (human colon adenocarcinoma cell line) • L929 (mouse fibroblast cell line) • A431 (human epidermoid carcinoma cell line) • A253 (submaxillary salivary gland, epidermoid cell line) • CAL-27 (human tongue squamous cell carcinoma cell line).
(§2) The cell lines were grown in DMEM (PAA Laboratories GmbH) supplemented with 10% heat-inactivated fetal calf serum (FCS, PAA Laboratories GmbH), 1% penicillin (10000 IU) and streptomycin (10000 μg/ml, PAA Laboratories GmbH). Cells were kept as a monolayer culture in a humidified incubator (5% CO2 in air at 37° C.).
(§3) A photosensitizer stock solution (2 mM) was performed in DMSO and was kept in the dark at 4° C. Further dilution was performed in DMEM medium without phenol red supplemented with 10% FCS to reach a final photosensitizer concentration of 2 or 10 μM, respectively.
(§4) 2·10^4 cells/ml were seeded in micro plates ([…]). Cells were incubated with fresh medium (DMEM without phenol red) containing 10% FCS with 2 or 10 μM of the photosensitizer for 24 h before light exposure. […]
(§5) The cell viability was assessed by the XTT assay. […]
(§6) The absorbance of the samples was measured with a spectrophotometer (Infinite 200, Tecan Group Ltd.) at a wavelength of 490 nm. In order to measure reference absorbance (to measure non-specific readings) a wavelength of 630-690 nm was used.

[2] = system: CAL-27 (human tongue squamous cell carcinoma cell line); test: Cell test of photosensitizing activity (XTT cell viability after 652 nm laser irradiation) in CAL-27; format: cell-based; conditions: 2 or 10 μM photosensitizer, 24 h incubation, 50 J/cm^2, XTT viability 24 h after irradiation
Description: as §1, §2, §3, §4, §5, §6

Substance: 5,10,15-tris-(3-hydroxy-phenyl)-20-[4-(butyloxy)-tetra-fluorphenyl]-porphyrin [Example 7.13]
- photodynamic activity (photo toxicity, "Laser") in the HT29 cell line [1]: lack activity
- PDT activity against CAL-27 cells [2]: show PDT activity
